Values quoted from earlier work in patent US20030100472A1, “Detergent tablet compositions” (Unilever Home & Personal Care USA, Division of Conopco, Inc., priority 2001, published 2003).
Like-named read-outs stand apart in the source and are kept apart here.

| SMILES | Water Solubility (g/100 g) (at 20° C., other materials) | Water Solubility (g/100 g) (grams of solid required to form a saturated solution in 100 grams of water at 20° C., highly water-soluble materials) |
| --- | --- | --- |
| O=BO[O-].[Na+] [Sodium perborate anhydrous] | 3.7 |  |
| O=P(O)(O)OP(=O)(O)OP(=O)(O)O [Sodium tripolyphosphate anhydrous] | 15 |  |
| NC(N)=O [Urea] |  | >100 |
